For one assay, the target named is Ion channel NompC (Danio rerio, UniProt Q7T1G6). Kind of assay: Fluorescence counterscreen assay for TRPML3 agonists: dose response cell-based high-throughput screening assay to identify agonists of the transient receptor potential channel N1 (TRPN1). [Related pubchem assays: 1526, 1424, 1448 ]. Format: functional. (In general: Counterscreens check selectivity or assay interference.)

The target of a further assay is T1, Mucolipin-3 (Homo sapiens, UniProt Q8TDD5).
T1 sequence (Q8TDD5 whole entry): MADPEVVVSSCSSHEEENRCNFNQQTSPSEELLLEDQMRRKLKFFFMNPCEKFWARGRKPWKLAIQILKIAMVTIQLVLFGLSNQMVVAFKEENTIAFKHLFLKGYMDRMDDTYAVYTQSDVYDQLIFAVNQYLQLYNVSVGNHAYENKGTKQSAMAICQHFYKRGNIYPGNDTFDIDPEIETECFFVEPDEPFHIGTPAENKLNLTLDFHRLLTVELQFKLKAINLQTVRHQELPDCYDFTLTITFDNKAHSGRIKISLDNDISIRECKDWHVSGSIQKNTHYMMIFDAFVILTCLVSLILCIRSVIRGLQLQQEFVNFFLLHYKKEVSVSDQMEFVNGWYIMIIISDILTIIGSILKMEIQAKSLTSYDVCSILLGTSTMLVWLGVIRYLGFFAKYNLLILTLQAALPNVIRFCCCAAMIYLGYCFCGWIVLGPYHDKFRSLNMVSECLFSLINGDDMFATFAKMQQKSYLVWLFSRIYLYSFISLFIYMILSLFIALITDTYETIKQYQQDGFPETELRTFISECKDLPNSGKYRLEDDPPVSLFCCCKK
Kind of assay: Dose response cell-based high-throughput screening assay for agonists of the transient receptor potential channel ML3 (TRPML3). [Related pubchem assays: 1526, 1424, 1448 ]. It counts as functional.

Assay [1] concerns the target Peroxisome proliferator-activated receptor gamma/Nuclear receptor coactivator 1 (Homo sapiens, UniProt P37231). It counts as functional.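 Note: agonist potency as compounds enhance coactivator SRC-1 recruitment to PPARgamma.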
The target in assay [2] is Peroxisome proliferator-activated receptor gamma/Nuclear receptor coactivator 2 (Homo sapiens, UniProt P37231). Format: functional.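 Note: agonist potency for raising coactivator recruitment to the receptor.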
Sequence of Peroxisome proliferator-activated receptor gamma/Nuclear receptor coactivator 2 (P37231 whole entry): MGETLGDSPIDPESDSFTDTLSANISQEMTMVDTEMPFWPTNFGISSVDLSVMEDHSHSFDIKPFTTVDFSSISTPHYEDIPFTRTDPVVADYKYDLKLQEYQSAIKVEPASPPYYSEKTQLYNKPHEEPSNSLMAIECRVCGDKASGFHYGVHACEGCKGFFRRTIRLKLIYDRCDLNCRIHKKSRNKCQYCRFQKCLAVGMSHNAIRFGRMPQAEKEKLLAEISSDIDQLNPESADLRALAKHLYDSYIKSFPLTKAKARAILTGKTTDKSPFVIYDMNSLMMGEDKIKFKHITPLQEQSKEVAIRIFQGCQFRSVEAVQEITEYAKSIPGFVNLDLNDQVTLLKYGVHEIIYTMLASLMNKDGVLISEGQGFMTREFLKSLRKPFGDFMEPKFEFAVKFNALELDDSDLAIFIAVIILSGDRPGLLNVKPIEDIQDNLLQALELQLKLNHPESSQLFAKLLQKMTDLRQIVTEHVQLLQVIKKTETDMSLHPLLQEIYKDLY
Sequence of Peroxisome proliferator-activated receptor gamma/Nuclear receptor coactivator 2 (Q15596 whole entry, further chain): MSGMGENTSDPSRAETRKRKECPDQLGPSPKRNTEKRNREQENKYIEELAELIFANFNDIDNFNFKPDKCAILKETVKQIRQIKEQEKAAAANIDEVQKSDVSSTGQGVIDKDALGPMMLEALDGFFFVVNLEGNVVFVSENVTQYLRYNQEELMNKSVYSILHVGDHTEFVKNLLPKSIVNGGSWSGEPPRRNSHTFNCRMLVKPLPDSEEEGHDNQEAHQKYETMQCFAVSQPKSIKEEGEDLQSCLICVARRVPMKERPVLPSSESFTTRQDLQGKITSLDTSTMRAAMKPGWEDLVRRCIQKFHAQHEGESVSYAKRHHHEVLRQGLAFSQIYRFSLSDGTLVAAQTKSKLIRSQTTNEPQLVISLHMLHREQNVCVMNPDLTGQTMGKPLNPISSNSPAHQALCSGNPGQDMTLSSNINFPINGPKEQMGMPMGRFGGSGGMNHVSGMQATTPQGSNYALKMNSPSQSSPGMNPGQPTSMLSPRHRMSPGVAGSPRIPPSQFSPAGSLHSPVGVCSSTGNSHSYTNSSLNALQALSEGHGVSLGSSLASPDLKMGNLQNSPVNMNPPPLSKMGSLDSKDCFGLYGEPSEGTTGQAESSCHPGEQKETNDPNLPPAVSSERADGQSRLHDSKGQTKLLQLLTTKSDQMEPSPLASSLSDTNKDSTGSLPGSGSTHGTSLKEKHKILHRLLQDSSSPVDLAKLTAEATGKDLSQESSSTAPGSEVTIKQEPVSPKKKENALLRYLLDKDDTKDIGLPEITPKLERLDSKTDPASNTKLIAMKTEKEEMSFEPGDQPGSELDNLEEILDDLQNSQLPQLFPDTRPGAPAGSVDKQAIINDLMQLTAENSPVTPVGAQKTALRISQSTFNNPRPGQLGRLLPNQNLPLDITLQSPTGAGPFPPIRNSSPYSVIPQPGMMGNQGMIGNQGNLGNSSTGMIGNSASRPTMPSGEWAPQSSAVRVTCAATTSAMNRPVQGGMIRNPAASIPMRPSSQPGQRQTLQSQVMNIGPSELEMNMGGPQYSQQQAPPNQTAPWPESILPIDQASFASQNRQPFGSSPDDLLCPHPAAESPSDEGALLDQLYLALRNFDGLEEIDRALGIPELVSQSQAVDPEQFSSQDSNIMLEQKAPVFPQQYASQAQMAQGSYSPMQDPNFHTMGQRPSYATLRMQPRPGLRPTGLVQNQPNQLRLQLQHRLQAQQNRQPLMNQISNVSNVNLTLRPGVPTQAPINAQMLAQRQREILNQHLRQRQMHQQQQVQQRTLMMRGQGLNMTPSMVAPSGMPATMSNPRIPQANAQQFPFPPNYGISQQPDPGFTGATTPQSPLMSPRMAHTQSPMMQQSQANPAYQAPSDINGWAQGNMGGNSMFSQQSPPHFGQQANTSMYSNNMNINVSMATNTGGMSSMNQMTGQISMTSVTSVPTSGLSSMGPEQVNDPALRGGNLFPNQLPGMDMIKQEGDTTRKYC
The target in assay [3] is Peroxisome proliferator-activated receptor gamma/Nuclear receptor coactivator 3 (Homo sapiens, UniProt P37231). It counts as functional.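 Note: agonist potency for raising coactivator recruitment to the receptor.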
Sequence of Peroxisome proliferator-activated receptor gamma/Nuclear receptor coactivator 3 (P37231 whole entry): as the sequence (P37231 whole entry) above
Sequence of Peroxisome proliferator-activated receptor gamma/Nuclear receptor coactivator 3 (Q9Y6Q9 whole entry, further chain): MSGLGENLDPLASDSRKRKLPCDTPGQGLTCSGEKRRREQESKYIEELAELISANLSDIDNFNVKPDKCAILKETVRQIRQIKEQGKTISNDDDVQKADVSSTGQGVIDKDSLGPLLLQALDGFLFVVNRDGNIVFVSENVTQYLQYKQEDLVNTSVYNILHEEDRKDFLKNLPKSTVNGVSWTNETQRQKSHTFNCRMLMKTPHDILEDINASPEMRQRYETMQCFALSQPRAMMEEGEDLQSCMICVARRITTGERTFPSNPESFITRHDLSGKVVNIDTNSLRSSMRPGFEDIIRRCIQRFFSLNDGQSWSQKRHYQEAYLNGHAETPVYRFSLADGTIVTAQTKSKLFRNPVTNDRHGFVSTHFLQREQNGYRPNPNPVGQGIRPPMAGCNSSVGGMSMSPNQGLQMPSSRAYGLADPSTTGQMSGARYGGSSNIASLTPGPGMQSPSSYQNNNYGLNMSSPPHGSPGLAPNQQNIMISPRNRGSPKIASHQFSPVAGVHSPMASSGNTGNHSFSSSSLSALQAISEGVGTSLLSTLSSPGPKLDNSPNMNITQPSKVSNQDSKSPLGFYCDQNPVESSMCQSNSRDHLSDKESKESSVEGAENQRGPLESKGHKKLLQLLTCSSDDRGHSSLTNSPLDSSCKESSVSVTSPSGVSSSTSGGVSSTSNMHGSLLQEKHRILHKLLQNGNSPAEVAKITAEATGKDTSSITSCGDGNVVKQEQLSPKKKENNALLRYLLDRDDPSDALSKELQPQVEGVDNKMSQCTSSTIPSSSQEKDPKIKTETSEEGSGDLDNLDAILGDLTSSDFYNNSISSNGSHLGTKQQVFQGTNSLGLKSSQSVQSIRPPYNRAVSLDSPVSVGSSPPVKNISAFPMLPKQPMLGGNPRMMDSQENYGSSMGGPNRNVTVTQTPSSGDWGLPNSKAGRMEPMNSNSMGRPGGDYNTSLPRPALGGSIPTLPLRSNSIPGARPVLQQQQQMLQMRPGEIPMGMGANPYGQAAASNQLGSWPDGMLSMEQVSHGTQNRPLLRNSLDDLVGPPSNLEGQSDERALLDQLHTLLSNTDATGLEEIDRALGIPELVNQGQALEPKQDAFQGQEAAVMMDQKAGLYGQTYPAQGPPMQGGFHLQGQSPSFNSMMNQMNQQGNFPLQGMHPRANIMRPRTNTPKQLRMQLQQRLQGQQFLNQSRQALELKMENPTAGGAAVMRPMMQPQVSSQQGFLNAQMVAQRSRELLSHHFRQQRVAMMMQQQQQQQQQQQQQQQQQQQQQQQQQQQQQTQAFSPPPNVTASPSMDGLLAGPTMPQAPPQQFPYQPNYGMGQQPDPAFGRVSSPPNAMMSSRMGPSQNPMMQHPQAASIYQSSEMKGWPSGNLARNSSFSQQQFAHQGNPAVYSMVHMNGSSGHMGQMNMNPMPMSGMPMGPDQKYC
Assay [4] deals with T2, RNA-binding protein pos-1 (Caenorhabditis elegans, UniProt G5EF15).
T2 sequence (G5EF15 whole entry): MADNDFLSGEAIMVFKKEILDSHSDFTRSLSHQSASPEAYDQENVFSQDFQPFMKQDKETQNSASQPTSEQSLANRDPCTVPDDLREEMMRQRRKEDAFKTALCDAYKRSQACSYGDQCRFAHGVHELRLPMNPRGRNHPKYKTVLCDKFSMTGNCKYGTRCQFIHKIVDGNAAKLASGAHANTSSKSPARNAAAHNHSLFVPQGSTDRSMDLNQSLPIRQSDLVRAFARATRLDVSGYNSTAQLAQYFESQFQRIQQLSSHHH
Nature of the assay: inhibitors of POS-1/mex-3 RNA binding, dose response, biochemical, fluorescence polarization (AID 1964).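 Note: purified POS-1 fused to maltose binding protein made in E. coli; potency of compounds blocking POS-1 binding to fluorescent RNA.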 A general note: Fluorescence polarisation rises when a labelled molecule tumbles more slowly, as on binding a larger partner.

For assay [5], the target named is G-protein coupled receptor 55 (Homo sapiens, UniProt Q9Y2T6). Kind of assay: GPR55 antagonists blocking LPI-driven arrestin recruitment, primary screen, imaging, U2OS, beta-arrestin-GFP, LPI agonist (AID 2013).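 Note: antagonist potency measured as reduced agonist-driven arrestin aggregation.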 It counts as functional. (Activated receptors often draw arrestin, which recruitment assays turn into a signal.)
Sequence of G-protein coupled receptor 55 (Q9Y2T6 whole entry): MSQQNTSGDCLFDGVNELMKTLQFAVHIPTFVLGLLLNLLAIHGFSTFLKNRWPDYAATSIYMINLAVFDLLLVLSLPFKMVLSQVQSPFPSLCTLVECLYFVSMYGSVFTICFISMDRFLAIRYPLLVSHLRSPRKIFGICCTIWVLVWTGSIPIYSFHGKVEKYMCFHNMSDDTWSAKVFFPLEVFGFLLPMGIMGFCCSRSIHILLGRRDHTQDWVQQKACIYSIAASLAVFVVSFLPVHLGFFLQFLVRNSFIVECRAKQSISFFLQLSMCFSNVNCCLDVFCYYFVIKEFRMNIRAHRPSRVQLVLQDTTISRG
The target in assay [6] is T3, Zinc finger protein mex-5 (Caenorhabditis elegans, UniProt Q9XUB2).
T3 sequence (Q9XUB2 whole entry): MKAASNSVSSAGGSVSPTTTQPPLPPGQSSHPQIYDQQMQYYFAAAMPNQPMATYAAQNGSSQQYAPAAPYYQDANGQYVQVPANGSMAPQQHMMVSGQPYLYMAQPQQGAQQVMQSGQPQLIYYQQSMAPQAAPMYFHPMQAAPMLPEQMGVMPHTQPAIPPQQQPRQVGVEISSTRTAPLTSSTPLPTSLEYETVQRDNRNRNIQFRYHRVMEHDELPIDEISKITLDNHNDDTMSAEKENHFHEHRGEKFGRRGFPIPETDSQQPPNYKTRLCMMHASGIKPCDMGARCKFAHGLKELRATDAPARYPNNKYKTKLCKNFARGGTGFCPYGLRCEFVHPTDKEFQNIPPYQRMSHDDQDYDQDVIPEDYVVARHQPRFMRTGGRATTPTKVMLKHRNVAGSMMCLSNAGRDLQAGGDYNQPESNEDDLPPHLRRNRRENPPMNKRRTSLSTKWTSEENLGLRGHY
Nature of the assay: MEX-5/TCR-2 RNA interaction inhibitors, dose response, biochemical, C. elegans, fluorescence polarization (AID 1960).

For the next assay, the system named is HeLa. Nature of the assay: HeLa cell cytotoxicity, dose response, cytotoxicity control, 24 h, cherry-picked samples (AID 504726).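 Note: potency for cytotoxicity as loss of luminescence signal.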 Format: functional, cell-based. The note with it: Homo sapiens.
Assay [7] concerns the target DNA dC->dU-editing enzyme APOBEC-3G (Homo sapiens, UniProt Q9HC16). Kind of assay: Dose Response confirmation of small molecule APOBEC3G DNA Deaminase Inhibitors via a fluorescence-based single-stranded DNA deaminase assay. [Related pubchem assays (depositor defined):AID493012, AID493028]. It counts as functional.
In assay [8] the target is DNA dC->dU-editing enzyme APOBEC-3A (Homo sapiens, UniProt P31941). Kind of assay: APOBEC3A DNA deaminase inhibitors, dose response, biochemical (AID 504722). It counts as functional.
Sequence of DNA dC->dU-editing enzyme APOBEC-3A (P31941 whole entry): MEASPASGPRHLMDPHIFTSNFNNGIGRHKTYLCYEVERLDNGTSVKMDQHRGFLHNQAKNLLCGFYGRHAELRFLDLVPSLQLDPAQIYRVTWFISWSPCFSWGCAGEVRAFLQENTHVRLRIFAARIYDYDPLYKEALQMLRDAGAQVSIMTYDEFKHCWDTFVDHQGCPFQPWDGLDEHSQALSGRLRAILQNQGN
The target of a further assay is Large T antigen (Simian virus 40, UniProt P03070). Format: functional, Betapolyomavirus macacae.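 Note: Confirmatory-stage PubChem screen for compounds that inhibit SV40 T antigen.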
Assay [9] addresses T4, Heat shock factor protein 1 (Mus musculus, UniProt P38532).
T4 sequence (P38532 whole entry): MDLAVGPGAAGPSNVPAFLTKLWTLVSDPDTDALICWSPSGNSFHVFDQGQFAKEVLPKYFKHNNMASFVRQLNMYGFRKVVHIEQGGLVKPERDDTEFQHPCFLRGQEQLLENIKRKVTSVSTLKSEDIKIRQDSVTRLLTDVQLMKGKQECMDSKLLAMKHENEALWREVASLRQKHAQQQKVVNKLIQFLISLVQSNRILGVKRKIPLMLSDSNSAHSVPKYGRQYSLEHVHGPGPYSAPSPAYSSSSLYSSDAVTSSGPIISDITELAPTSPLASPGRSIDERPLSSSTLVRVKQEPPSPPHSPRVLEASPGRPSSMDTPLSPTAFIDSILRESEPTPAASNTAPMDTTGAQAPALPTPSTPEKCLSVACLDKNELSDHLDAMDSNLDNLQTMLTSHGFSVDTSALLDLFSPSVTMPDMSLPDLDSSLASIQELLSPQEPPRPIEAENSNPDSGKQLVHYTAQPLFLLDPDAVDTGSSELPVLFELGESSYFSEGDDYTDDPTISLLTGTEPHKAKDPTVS
Kind of assay: inhibition of MG132-induced HSE-luciferase signal, confirmation, cell-based, NIH3T3, luminescence, dose retest (AID 2382).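 Note: NIH3T3 fibroblasts with HSF1-driven luciferase reporter stressed by proteasome inhibitor MG132; luminescence from HSF1-driven luciferase expression after 8 hours of MG132 stress.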 Format: functional.

A further assay concerns the target T5, Leucine aminopeptidase (Plasmodium falciparum 3D7, UniProt Q8IL11).
T5 sequence (Q8IL11 whole entry): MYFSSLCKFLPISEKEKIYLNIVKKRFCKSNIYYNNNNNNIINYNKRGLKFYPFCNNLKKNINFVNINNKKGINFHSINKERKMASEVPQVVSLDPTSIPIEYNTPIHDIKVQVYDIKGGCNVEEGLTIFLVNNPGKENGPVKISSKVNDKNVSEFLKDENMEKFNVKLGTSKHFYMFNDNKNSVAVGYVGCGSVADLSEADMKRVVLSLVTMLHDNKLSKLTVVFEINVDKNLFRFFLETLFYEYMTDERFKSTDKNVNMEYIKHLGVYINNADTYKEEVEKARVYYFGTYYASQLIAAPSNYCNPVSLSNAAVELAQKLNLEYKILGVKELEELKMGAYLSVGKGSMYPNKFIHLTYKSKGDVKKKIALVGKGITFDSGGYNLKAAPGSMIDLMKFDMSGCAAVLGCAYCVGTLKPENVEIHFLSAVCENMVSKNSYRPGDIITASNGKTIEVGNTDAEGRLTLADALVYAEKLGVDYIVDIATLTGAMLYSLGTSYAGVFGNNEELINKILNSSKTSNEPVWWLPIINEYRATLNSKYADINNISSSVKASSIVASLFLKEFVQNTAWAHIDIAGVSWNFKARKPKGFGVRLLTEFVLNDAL
Nature of the assay: P. falciparum M17LAP inhibitors, primary screen, biochemical, fluorogenic H-Leu-NHMec substrate, 1536-well (AID 1619). Format: functional.

Assay [10] deals with HEK293. Kind of assay: cells. Format: functional, cell-based. The note with it: Homo sapiens.
In assay [11] the target is Nucleotide-binding oligomerization domain-containing protein 2 (Homo sapiens, UniProt Q9HC29). Nature of the assay: NOD2 signaling inhibitors, cell-based, luminescence, uHTS, HEK293 (AID 1566). Format: functional.
The subject of assay [12] is HEK293. Kind of assay: NOD1 signaling inhibitors, primary screen, cell-based, luminescence, uHTS (AID 1578). It counts as functional. The note with it: Homo sapiens.
Assay [13] has as its system HEK293. Kind of assay: NOD2 signaling inhibitors in MDP-stimulated cells, cell-based, uHTS, luminescence (AID 2001). Format: functional. The note with it: Homo sapiens.
In assay [14] the test system is HEK293. Kind of assay: cells. Format: functional, cell-based. The note with it: Homo sapiens. This is another data set of the same source.
Assay [15] relates to HEK293. Nature of the assay: cells. The note with it: Homo sapiens. It counts as functional, cell-based. This is another data set of the same source.

Calls of active or inactive are those of the source. A value given as a limit tells only on which side of the number the result lay.

Sequence of DNA dC->dU-editing enzyme APOBEC-3G (Q9HC16 whole entry): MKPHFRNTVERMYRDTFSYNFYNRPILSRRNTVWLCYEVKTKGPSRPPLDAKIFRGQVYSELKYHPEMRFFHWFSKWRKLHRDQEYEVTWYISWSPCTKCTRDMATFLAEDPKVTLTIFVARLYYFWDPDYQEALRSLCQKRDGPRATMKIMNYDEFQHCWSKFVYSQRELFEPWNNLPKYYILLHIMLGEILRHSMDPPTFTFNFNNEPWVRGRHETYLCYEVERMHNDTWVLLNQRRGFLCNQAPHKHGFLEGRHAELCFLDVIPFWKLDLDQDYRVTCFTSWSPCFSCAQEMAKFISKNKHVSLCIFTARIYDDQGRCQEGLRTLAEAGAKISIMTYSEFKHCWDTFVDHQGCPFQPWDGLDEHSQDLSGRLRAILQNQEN

`COc1ccc(C(=O)Nc2ccc(S(=O)(=O)N3CCCCC3C)cc2)c(OC)c1OC` (stereo not given): the EC50 at Ion channel NompC is > 29.9 µM (not active); on Mucolipin-3, 1.78 µM (active).
`CC(C)[C@H](NC(=O)OC(C)(C)C)c1nnc(SCc2cccc(F)c2)o1`: the results for the EC50 in assay [1], in assay [2] and in assay [3] were 8.46 µM (active), 24 µM (not active) and 16.9 µM (not active), respectively.
The like results for `Cn1ncc([N+](=O)[O-])c1C(=O)N/N=C/c1ccc(F)cc1` were, in that order, > 79.4 µM (not active), > 79.4 µM (not active) and > 79.4 µM (not active).
For `Cc1ccc(/C=C2/C(=O)NC(=O)N(CCc3ccc(F)cc3)C2=O)o1`, the results for the EC50 in [4] and in assay [6] were > 300 µM (not active) and 290 µM (active), respectively. Moreover, in assay [5], the IC50 was 4.5 µM (active).
With `CCOC(=O)c1c(C)n(C)c2ccc(OCCN(C)C)cc12`, the AC50 with HeLa was > 350 µM (inactive).
With `COc1cc(/C=N/n2c(S)nnc2-c2[nH]nc3c2CCC3)ccc1O`, the IC50 was 1.56 µM (active) in [7], > 100 µM (inactive) in assay [8] and 7.5 µM (active) at Large T antigen.
For the compound `COc1cccc2cc(-c3n[nH]c(=S)n3C)oc12`, the IC50 is 2.18 µM (active) in assay [7] and > 100 µM (inactive) in [8].
On to `Cc1ccc(S(=O)(=O)N2CCC(C)CC2)cc1[N+](=O)[O-]`, for which the EC50 was > 29.9 µM (not active) on Ion channel NompC, 3.51 µM (active) at Mucolipin-3 and > 195 µM (not active) in assay [9].
Consider `CCC1CCCCN1S(=O)(=O)c1ccc(S(=O)(=O)N(Cc2cccs2)C2CC2)cc1` (stereo not given), for which the half-maximal effective concentration (EC50) on Ion channel NompC was > 29.9 µM (not active); at Mucolipin-3, 1.16 µM (active).
On to `CCOC(=O)C1CCN(CCC(=O)Nc2ccc(C)c(C)c2)CC1`, for which the EC50 in assay [1], in [2] and in [3] was > 79.4 µM (not active) each time.
`CC(Sc1nc2ccccc2s1)C(=O)Nc1nnc(C(C)C)s1` (stereo not given): the IC50 at Leucine aminopeptidase is 2.84 µM (active). Moreover, the EC50 in assay [9] is listed as > 195 µM (not active). The AC50 in the assay with HeLa is > 350 µM (inactive).
Turning to `Cc1cc(C(=O)COc2cccnc2[N+](=O)[O-])c(C)n1Cc1cccs1`, the IC50 in the assay with HEK293 [10], with HEK293 [13], in the assay on HEK293 [14] and in the assay with HEK293 [15] was > 20 µM (inactive) each time. Also, the EC50 in assay [11] was 8.89 µM (active); with HEK293 [12], > 20 µM (inactive).
Consider `CC1CC(C)CN(C(=O)c2ccc3ncsc3c2)C1` (stereo not given), for which the AC50 in the assay with HeLa was 95.4 µM (active).

A word on the EC50: it is the concentration that produces a half-maximal response. The IC50 is the concentration needed to halve the response being measured. Broadly, the AC50 is the concentration giving half of the maximal activity seen.

(Values after ChEMBL document CHEMBL1201862, “PubChem BioAssay data set” (2004).)
